{"source": "patent EP4796125A1", "about": "“TREATMENT OF PATIENT WITH NEGATIVE P53 GENE MUTATION, POSITIVE KRAS GENE MUTATION AND POSITIVE BRCA MUTATION” (Ascentawits Pharmaceuticals, Ltd., priority 2023, dated 2025)", "key": {"[1]": {"tested_on": "hepatocellular carcinoma", "test": "Phase II clinical trial of AST-3424 conducted in China (CTR20191399)", "assay_type": "in vivo, human", "text": "The clinical trial registration number is CTR20191399.\n• 1. Male or female, aged ≥18 years. • 2. Pathohistologically confirmed advanced HCC that cannot be controlled by surgical resection or local therapy. • 3. Previously received standard systemic therapy, including but not limited to, Sorafenib and/or Oxaliplatin-containing systemic chemotherapy, Lenvatinib, Regorafenib, and/or Nivolumab, experienced disease progression, toxicity intolerance, or refusal to continue treatment with these drugs. • 4. At least one measurable lesion according to RECIST 1.1 criteria. Previously irradiated lesions cannot be considered as measurable lesions unless clear radiographic progression is observed after radiotherapy. • 5. […] Eastern Cooperative Oncology Group (ECOG) performance status score of 0 or 1. • 7. Life expectancy ≥ 12 weeks. • 8. With or without HBV or HCV infection. • a. Subjects with HBV infection must have HBV-DNA level less than 2,000 IU/ml, and receive antiviral therapy with entecavir, tenofovir disoproxil fumarate, or tenofovir alafenamide fumarate according to the national guidelines for the prevention and treatment of chronic hepatitis B. The therapy must be maintained during the study and continue for 6 months after the last dose. • b. Subjects with HCV infection (with detectable HCV-RNA or anti-HCV antibodies) may receive treatment according to medical practice. • 9. Child-Pugh score ≤ 6 points. • 10. No history of hepatic encephalopathy. • 11. Before starting to use the study drug, all toxicities from previous anticancer therapies (except alopecia, fatigue, or peripheral neuropathy) must have recovered to Grade 1 or baseline levels (NCI CTCAE Version 5). • 12. Laboratory tests must meet the following criteria. During 14 days before laboratory tests at screening, indicators cannot be corrected by blood transfusion, hematopoietic stimulating factor or albumin infusion is allowed to meet the inclusion criteria. • a. Hemoglobin ≥ 90 g/L; • b. Platelet count ≥ 80 × 10^9/L; • c. Absolute neutrophil count (ANC) ≥ 1.5 × 10^9/L; • d. Serum total bilirubin ≤ 3 mg/dL; • e. ALT and AST ≤ 5.0 × ULN; • f. International normalized ratio (INR) ≤ 2.3 or prothrombin time prolongation ≤ 6 seconds; • g. Albumin ≥ 29 g/L; • h. Creatinine clearance > 50 mL/min as measured according to the Cockcroft-Gault equation. • 13. No history of alcohol abuse, drug addiction or substance abuse within the past year. • 14. Fertile female patients must be in non-lactating and have a negative pregnancy test result within 5 days before the initiation of treatment (positive urine pregnancy test result needs to be confirmed by a serum pregnancy test). • 15. Fertile female and male subjects must agree to use effective contraceptive measures (e.g. surgical sterilization or condom or diaphragm contraceptive measures combined with spermicidal gel or intrauterine contraceptive device [IUD], etc.) with their partners from the start of study participation until 6 months after the last dose. • 16. Voluntary participation in this study, fully understanding of relevant risks, good compliance, and signing the informed consent form. Subjects may also sign a consent form for future biomedical research (FBR). However, subjects who would not participate in FBR may still participate in the main trial.\n• 1. Untreated active central nervous system (CNS) metastases or leptomeningeal disease. Subjects with adequately treated CNS metastases may participate if they are confirmed to be stable for at least 4 weeks by clinical examination and brain imaging (MRI or CT) during screening. • 2. History of other malignant tumors within 2 years, except for adequately treated basal cell carcinoma, carcinoma in situ at other sites, or other tumors of which the natural medical history and the treatment will not interfere with the safety or efficacy assessment of the current study. • 3. Major surgery (other than diagnostic surgery) performed within 4 weeks prior to the first dose. • 4. […]"}, "[2]": {"tested_on": "HPAF-II cells", "test": "Applicant's previous cancer cell proliferation inhibition test", "assay_type": "cell-based", "conditions": "Homo sapiens, single drug, applicant's previous test data"}, "[3]": {"tested_on": "cell lines and mouse tumor models of BRCA pathogenic mutations", "conditions": "in vitro and in vivo pharmacodynamic experiments; data of WO2023174319A; cited from earlier work"}, "[4]": {"tested_on": "cell lines and mouse tumor models of KRAS pathogenic mutations", "conditions": "in vitro and in vivo pharmacodynamic experiments; data of WO2023046060A1; cited from earlier work"}, "[5]": {"conditions": "6 cases positive (+) for BRCA gene mutation, as of March 11, 2024"}, "[6]": {"conditions": "8 cases negative (-) for BRCA gene mutation, as of March 11, 2024"}, "[7]": {"conditions": "8 cases positive (+) for p53 gene mutation which may affect protein expression (MUT), as of March 11, 2024"}, "[8]": {"conditions": "9 cases negative (-) for p53 gene mutation (WT), as of March 11, 2024"}, "[9]": {"conditions": "18 liver cancer subjects who completed the clinical efficacy evaluation"}, "[10]": {"conditions": "30 enrolled subjects, as of March 11, 2024"}, "[11]": {"conditions": "subgroup of 5 cases negative (-) for BRCA gene mutation, Table 4 data"}, "[12]": {"conditions": "subgroup of 5 cases negative (-) for p53 gene mutation or deficiency, Table 4 data"}, "[13]": {"conditions": "subgroup of 5 cases positive (+) for BRCA gene mutation, Table 4 data"}, "[14]": {"conditions": "subgroup of 5 cases positive (+) for p53 gene mutation or deficiency, Table 4 data"}}}
{"smiles": "C[C@H](OP(=O)(N1CC1)N1CC1)c1ccc([N+](=O)[O-])c(Oc2cccc(C(=O)N(C)C)c2)c1", "note": "[AST-3424]", "values": [{"measurement": "DCR", "setting": "[1]; [5]", "value": 66.7, "unit": "%"}, {"measurement": "ORR", "setting": "[1]; [5]", "value": 16.7, "unit": "%"}, {"measurement": "longest OS", "setting": "[1]; [5]", "value": "more than 13.8 months"}, {"measurement": "longest PFS", "setting": "[1]; [5]", "value": "more than 11.5 months"}, {"measurement": "mean OS", "setting": "[1]; [5]", "value": "more than 9.5 months"}, {"measurement": "mean PFS", "setting": "[1]; [5]", "value": 4.5, "unit": "months"}, {"measurement": "DCR", "setting": "[1]; [6]", "value": 50, "unit": "%"}, {"measurement": "ORR", "setting": "[1]; [6]", "value": 0, "unit": "%"}, {"measurement": "longest OS", "setting": "[1]; [6]", "value": "more than 17.6 months"}, {"measurement": "longest PFS", "setting": "[1]; [6]", "value": 2.9, "unit": "months"}, {"measurement": "mean OS", "setting": "[1]; [6]", "value": "more than 9.4 months"}, {"measurement": "mean PFS", "setting": "[1]; [6]", "value": 1.9, "unit": "months"}, {"measurement": "DCR", "setting": "[1]; [7]", "value": 25, "unit": "%"}, {"measurement": "ORR", "setting": "[1]; [7]", "value": 0, "unit": "%"}, {"measurement": "longest OS", "setting": "[1]; [7]", "value": "> 14.0", "unit": "months"}, {"measurement": "longest PFS", "setting": "[1]; [7]", "value": 1.6, "unit": "months"}, {"measurement": "mean OS", "setting": "[1]; [7]", "value": "more than 9.3 months"}, {"measurement": "mean PFS", "setting": "[1]; [7]", "value": 1.4, "unit": "months"}, {"measurement": "DCR", "setting": "[1]; [8]", "value": 77.8, "unit": "%"}, {"measurement": "ORR", "setting": "[1]; [8]", "value": 22.2, "unit": "%"}, {"measurement": "longest OS", "setting": "[1]; [8]", "value": "> 13.8", "unit": "months"}, {"measurement": "longest PFS", "setting": "[1]; [8]", "value": "more than 11.5 months"}, {"measurement": "mean OS", "setting": "[1]; [8]", "value": "more than 7.7 months"}, {"measurement": "mean PFS", "setting": "[1]; [8]", "value": "more than 4.1 months"}, {"measurement": "DCR", "setting": "[1]; [9]", "value": 61.1, "unit": "%"}, {"measurement": "ORR", "setting": "[1]; [9]", "value": 5.6, "unit": "%"}, {"measurement": "longest OS", "setting": "[1]; [10]", "value": "> 17.6", "unit": "months"}, {"measurement": "longest PFS", "setting": "[1]; [10]", "value": "> 11.5", "unit": "months"}, {"measurement": "DCR", "setting": "[1]; [11]", "value": 60, "unit": "%"}, {"measurement": "ORR", "setting": "[1]; [11]", "value": 0, "unit": "%"}, {"measurement": "mean PFS", "setting": "[1]; [11]", "value": 1.976, "unit": "months"}, {"measurement": "DCR", "setting": "[1]; [12]", "value": 80, "unit": "%"}, {"measurement": "ORR", "setting": "[1]; [12]", "value": 20, "unit": "%"}, {"measurement": "mean PFS", "setting": "[1]; [12]", "value": 4.1, "unit": "months"}, {"measurement": "DCR", "setting": "[1]; [13]", "value": 80, "unit": "%"}, {"measurement": "ORR", "setting": "[1]; [13]", "value": 20, "unit": "%"}, {"measurement": "mean PFS", "setting": "[1]; [13]", "value": 3.82, "unit": "months"}, {"measurement": "DCR", "setting": "[1]; [14]", "value": 60, "unit": "%"}, {"measurement": "ORR", "setting": "[1]; [14]", "value": 0, "unit": "%"}, {"measurement": "mean PFS", "setting": "[1]; [14]", "value": 1.756, "unit": "months"}, {"measurement": "IC50", "setting": "[2]", "value": 107, "unit": "nM"}, {"measurement": "sensitivity of cell lines and mouse tumor models of BRCA pathogenic mutations", "setting": "[3]", "value": "more sensitive"}, {"measurement": "sensitivity of cell lines and mouse tumor models of KRAS pathogenic mutations", "setting": "[4]", "value": "more sensitive"}]}
